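Test compounds were applied to cells in 96-well plates for 48 hours at 5 doses. Here, GI50 denotes the concentration required for 50% inhibition of growth.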 The source made the active and inactive calls. No stated cut-off is given here; in the data, active = GI50 up to about 1.1 µM and inactive = higher.
Legend:
Assay in all cases: DTP human tumour cell line panel, 48 h
OVCAR-8 = test system: OVCAR-8
SN12C = test system: SN12C
OVCAR-3 = test system: OVCAR-3
UACC-257 = test system: UACC-257
NCI-H460 = test system: NCI-H460
OVCAR-4 = test system: OVCAR-4
MCF7 = test system: MCF7
Hs-578T = test system: Hs-578T
A549 = test system: A549
K562 = test system: K562
T47D = test system: T47D
IGROV-1 = test system: IGROV-1
HT-29 = test system: HT-29
OVCAR-5 = test system: OVCAR-5
RPMI-8226 = test system: RPMI-8226
SF-268 = test system: SF-268
SF-539 = test system: SF-539
786-0 = test system: 786-0
UACC-62 = test system: UACC-62
HOP-92 = test system: HOP-92

| Compound | GI50 (OVCAR-8) | GI50 (SN12C) | GI50 (OVCAR-3) | GI50 (UACC-257) | GI50 (NCI-H460) | GI50 (OVCAR-4) | GI50 (MCF7) | GI50 (Hs-578T) | GI50 (A549) | GI50 (K562) | GI50 (T47D) | GI50 (IGROV-1) | GI50 (HT-29) | GI50 (OVCAR-5) | GI50 (RPMI-8226) | GI50 (SF-268) | GI50 (SF-539) | GI50 (786-0) | GI50 (UACC-62) | GI50 (HOP-92) |
| --- | --- | --- | --- | --- | --- | --- | --- | --- | --- | --- | --- | --- | --- | --- | --- | --- | --- | --- | --- | --- |
| O=C1Nc2ccc(Br)cc2/C1=N/Nc1ccccc1[N+](=O)[O-] | 17.2 µM (inactive) | 18.8 µM (inactive) | 10.7 µM (inactive) | 13.3 µM (inactive) | 9.73 µM (inactive) | 14.4 µM (inactive) | 20.8 µM (inactive) | 16.1 µM (inactive) | 9.29 µM (inactive) | 16.6 µM (inactive) | 29.9 µM (inactive) | 0.261 µM (active) | 13.8 µM (inactive) | 12.7 µM (inactive) | 16.4 µM (inactive) | 20.2 µM (inactive) | > 100 µM (inactive) | 24.6 µM (inactive) | 22.2 µM (inactive) |  |
| N#C[C@H](C(=O)c1ccccc1F)c1nc2ccccc2s1 | 25.1 µM (inactive) | 31.6 µM (inactive) | 18.5 µM (inactive) | 66.1 µM (inactive) | 28.9 µM (inactive) |  |  | 15.1 µM (inactive) | 29 µM (inactive) | 27.3 µM (inactive) | 34.8 µM (inactive) | 17.8 µM (inactive) | 28.1 µM (inactive) | 31 µM (inactive) | 22.5 µM (inactive) | 26.9 µM (inactive) | 20.7 µM (inactive) | 31.2 µM (inactive) | 50.8 µM (inactive) | 48.1 µM (inactive) |
| C=C(C)C1CC[C@@](C)(O)[C@H](C#N)C1 (some centres not stated) | > 100 µM (inactive) | > 100 µM (inactive) | > 100 µM (inactive) | > 100 µM (inactive) | > 100 µM (inactive) | > 100 µM (inactive) | > 100 µM (inactive) | > 100 µM (inactive) | > 100 µM (inactive) | > 100 µM (inactive) | > 100 µM (inactive) |  | > 100 µM (inactive) | > 100 µM (inactive) | > 100 µM (inactive) | > 100 µM (inactive) | > 100 µM (inactive) | > 100 µM (inactive) | > 100 µM (inactive) |  |
| CSc1nc(C)c(CCCl)c(Cl)n1 | > 100 µM (inactive) | 52.6 µM (inactive) | > 100 µM (inactive) | > 100 µM (inactive) | > 100 µM (inactive) | > 100 µM (inactive) |  | > 100 µM (inactive) | > 100 µM (inactive) | 31.8 µM (inactive) | > 100 µM (inactive) | > 100 µM (inactive) | > 100 µM (inactive) |  |  | > 100 µM (inactive) | > 100 µM (inactive) | > 100 µM (inactive) | 89.1 µM (inactive) |  |
| COc1ccc(-c2nc(O)c3ccccc3n2)c(OC)c1 | > 100 µM (inactive) | > 100 µM (inactive) | > 100 µM (inactive) | > 100 µM (inactive) | > 100 µM (inactive) | > 100 µM (inactive) | > 100 µM (inactive) | > 100 µM (inactive) | > 100 µM (inactive) |  | > 100 µM (inactive) | > 100 µM (inactive) | > 100 µM (inactive) | > 100 µM (inactive) | 29.1 µM (inactive) | > 100 µM (inactive) |  | > 100 µM (inactive) | > 100 µM (inactive) |  |
| COc1ccc(NC(=O)C2=C(SC)C(=O)N=C2N)cc1 | > 100 µM (inactive) |  |  | > 100 µM (inactive) | > 100 µM (inactive) | > 100 µM (inactive) |  | > 100 µM (inactive) |  | > 100 µM (inactive) | > 100 µM (inactive) | 61.7 µM (inactive) | > 100 µM (inactive) |  | > 100 µM (inactive) | > 100 µM (inactive) |  | > 100 µM (inactive) | > 100 µM (inactive) | > 100 µM (inactive) |

— ChEMBL document CHEMBL1201862, “PubChem BioAssay data set” (2004)
